For this experiment, the system named is bacteria or mold. The experiment is described as follows: retention of antimicrobial activity on a substrate. As to conditions: no test method described.

For the molecule `Cc1cc(O)cc(C)c1Cl` [PCMX, 4-chloro-3,5-dimethyl phenol], the “duration of antimicrobial effect on a substrate” value is reported as “hours”.

The record behind these values is patent publication US20120190754A1, “ANTIMICROBIAL COMPOSITION CONTAINING PARACHLORMETAXYLENOL” (Sentinel Products Corp., priority 2009, published 2012).
